Reference: patent US4195179A, “5-(Indol-3-ylmethylene)-1,3-dimethyl-2-methylamino-4-imidazolidinone” (Hoffmann-La Roche Inc., priority 1976, dated 1980)

Tests used:
[1] = test system: tetrabenazine induced ptosis; assay: antagonism of tetrabenazine induced ptosis; type: in vivo; settings: Mus musculus, 1 h; oral, male mice; tetrabenazine methanesulfonate 100 mg/kg one hour after test compound; ptosis observed one hour later
Procedure: Groups of 10 mice each are administered tetrabenazine methanesulfonate at a dose of 100 mg/kg., one hour after oral administration of the test compound. One hour after tetrabenazine administration, each mouse is observed for the presence or absence of ptosis. An ED50 value for the antagonism of tetrabenazine induced ptosis is then determined.

acute toxicity (LD50) = settings: mouse, in vivo

| SMILES | ED50 [1] [mg/kg] | LD50 (acute toxicity (LD50); ip) [mg/kg] | LD50 (acute toxicity (LD50); po) [mg/kg] |
| --- | --- | --- | --- |
| C/N=C1/N(C)C(=O)/C(=C\c2c[nH]c3ccccc23)N1C [(E)-5-(indol-3-ylmethylene)-1,3-dimethyl-2-methylimino-4-imidazolidinone] | 5 | 670 | 900 |
| C#CCN(C)Cc1ccccc1 [pargyline] | – | 390 | 720 |
| COc1ccc2c3c([nH]c2c1)C(C)=NCC3 [harmaline] | – | 120 | 380 |
